{
  "source": "paper PMC4609000",
  "about": "(Chembiochem : a European journal of chemical biology, 2015)",
  "key": {"DXP synthase [1]": {"target": "DXP synthase", "settings": "cited from earlier work"}, "DXP synthase [2]": {"target": "T1, DXP synthase (Escherichia coli, UniProt P77488)", "T1 sequence (P77488 whole entry)": "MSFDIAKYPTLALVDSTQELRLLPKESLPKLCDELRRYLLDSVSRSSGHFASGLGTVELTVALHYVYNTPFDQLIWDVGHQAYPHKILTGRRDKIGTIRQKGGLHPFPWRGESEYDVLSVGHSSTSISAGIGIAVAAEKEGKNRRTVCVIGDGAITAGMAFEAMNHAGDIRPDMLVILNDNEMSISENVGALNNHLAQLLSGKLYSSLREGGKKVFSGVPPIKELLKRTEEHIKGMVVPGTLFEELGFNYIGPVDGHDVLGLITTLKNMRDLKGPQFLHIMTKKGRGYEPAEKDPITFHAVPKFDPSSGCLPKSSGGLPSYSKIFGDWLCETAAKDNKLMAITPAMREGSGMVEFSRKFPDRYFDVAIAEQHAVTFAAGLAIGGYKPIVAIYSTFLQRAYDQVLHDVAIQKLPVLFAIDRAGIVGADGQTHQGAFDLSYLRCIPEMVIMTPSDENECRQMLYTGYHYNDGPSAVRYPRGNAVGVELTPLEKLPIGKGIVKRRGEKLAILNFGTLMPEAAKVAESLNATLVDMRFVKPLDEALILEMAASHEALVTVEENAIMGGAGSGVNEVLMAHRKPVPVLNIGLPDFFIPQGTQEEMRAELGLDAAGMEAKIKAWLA", "assay": "DXP synthase inhibition, continuous spectrophotometric IspC-coupled assay", "type": "biochemical, E. coli", "settings": "for mode of inhibition with respect to D-GAP / mode of inhibition with respect to pyruvate: model discrimination analysis (AIC)"}, "[3]": {"settings": "pH 8"}, "DXP synthase [4]": {"target": "T1, DXP synthase", "assay": "Rapid dilution experiment", "type": "biochemical, E. coli", "settings": "pre-incubation 15 or 30 min"}, "[5]": {"assay": "13C NMR monitoring of oxime 8 at pH 8", "type": "physicochemical", "settings": "pH 8, 24 hours"}, "DXP synthase [6]": {"target": "T1, DXP synthase", "assay": "DXP synthase inhibitory activity in the presence of BME or ascorbic acid", "type": "biochemical, E. coli", "settings": "inhibitor 50 µM"}, "[7]": {"assay": "Stability of inhibitors under the assay conditions", "settings": "HEPES pH 8.0, 37 °C, HPLC analysis, data not shown"}},
  "note": "Entries after “also recorded” stand apart in the source; their conditions may differ. Read-outs that look alike come from different tables or passages of the source.",
  "data": [
    {"smiles": "CCCCOP(=O)(O)C(C)=O", "note": "[Butyl Acetyl Phosphonate]", "values": [
      {"measurement": "Ki", "setting": "DXP synthase [1]", "result": "5.6 ± 0.8", "unit": "µM"}
    ]},
    {"smiles": "O=C([O-])/C=N/OCCO/N=C/c1cc(O)c(O)cc1O.[Na+]", "note": "[Compound 4, Sodium (1E,7E)-1-(2,4,5-trihydroxyphenyl)-3,6-dioxa-2,7-diazanona-1,7-dien-9-oate]", "values": [
      {"measurement": "mode of inhibition with respect to D-GAP", "setting": "DXP synthase [2]", "result": "competitive"},
      {"measurement": "mode of inhibition with respect to pyruvate", "setting": "DXP synthase [2]", "result": "noncompetitive"}
    ]},
    {"smiles": "Oc1cc(O)c(/C=N/OCCO/N=C/c2cc(O)c(O)cc2O)cc1O", "note": "[Compound 5, (1E,1'E)-O,O'-(Ethane-1,2-diyl)bis(1-(2,4,5-trihydroxyphenyl)-2,4,5-trihydroxybenzaldehyde oxime)]", "values": [
      {"measurement": "mode of inhibition with respect to D-GAP", "setting": "DXP synthase [2]", "result": "competitive"},
      {"measurement": "mode of inhibition with respect to pyruvate", "setting": "DXP synthase [2]", "result": "uncompetitive"}
    ]},
    {"smiles": "O=Cc1cc(O)c(O)cc1O", "note": "[Compound 6, 2,4,5-trihydroxybenzaldehyde]", "values": [
      {"measurement": "stability under the conditions of the assay", "setting": "[3]", "result": "unstable"}
    ]},
    {"smiles": "O/N=C/c1cc(O)c(O)cc1O", "note": "[Compound 7, (E)-2,4,5-Trihydroxybenzaldehyde oxime]", "values": [
      {"measurement": "mode of inhibition with respect to D-GAP", "setting": "DXP synthase [2]", "result": "competitive"},
      {"measurement": "mode of inhibition with respect to pyruvate", "setting": "DXP synthase [2]", "result": "uncompetitive"}
    ]},
    {"smiles": "CO/N=C/c1cc(O)c(O)cc1O", "note": "[Compound 8, (E)-2,4,5-Trihydroxybenzaldehyde O-methyl oxime]", "values": [
      {"measurement": "time dependence of inhibitory activity", "setting": "DXP synthase [4]", "result": "not time-dependent"},
      {"measurement": "mode of inhibition with respect to pyruvate", "setting": "DXP synthase [2]", "result": "noncompetitive"},
      {"measurement": "quinone species observed by 13C NMR", "setting": "[5]", "result": "no observable quinone species"},
      {"measurement": "inhibitory activity in the presence of BME", "setting": "DXP synthase [6]; BME 0.5 mM", "result": "abolished; also recorded: abolishes inhibitory activity"},
      {"measurement": "inhibitory activity in the presence of ascorbic acid", "setting": "DXP synthase [6]; ascorbic acid 2.0 mM", "result": "does not abolish inhibitory activity"}
    ]},
    {"smiles": "Oc1cc(O)c(/C=N/OCc2ccccc2)cc1O", "note": "[Compound 9, (E)-2,4,5-Trihydroxybenzaldehyde O-benzyl oxime]", "values": [
      {"measurement": "mode of inhibition with respect to pyruvate", "setting": "DXP synthase [2]", "result": "noncompetitive"}
    ]},
    {"smiles": "CONCc1cc(O)c(O)cc1O.Cl", "note": "[Compound 10, 5-((Methoxyamino)methyl)benzene-1,2,4-triol hydrochloride]", "values": [
      {"measurement": "stability under the conditions of the assay", "setting": "[7]", "result": "unstable"},
      {"measurement": "Ki", "setting": "DXP synthase [2]; evaluated in the presence of ascorbic acid (2.0 mM)", "result": "> 75", "unit": "µM"}
    ]},
    {"smiles": "CN/N=C/c1cc(O)c(O)cc1O", "note": "[Compound 11, (E)-5-((2-Methylhydrazono)methyl)benzene-1,2,4-triol]", "values": [
      {"measurement": "stability under the conditions of the assay", "setting": "[7]", "result": "unstable"}
    ]},
    {"smiles": "CO/N=C/c1cc(O)c(O)c(O)c1", "note": "[Compound 17, (E)-3,4,5-Trihydroxybenzaldehyde O-methyl oxime]", "values": [
      {"measurement": "mode of inhibition with respect to D-GAP", "setting": "DXP synthase [2]", "result": "competitive"}
    ]},
    {"smiles": "CO/N=C/c1cc(O)c(O)c(OC)c1", "note": "[Compound 18, (E)-3,4-Dihydroxy-5-methoxybenzaldehyde O-methyl oxime]", "values": [
      {"measurement": "inhibition at 200 µM", "setting": "DXP synthase [2]", "result": 18, "unit": "%"}
    ]},
    {"smiles": "CO/N=C/c1cccc([N+](=O)[O-])c1O", "note": "[Compound 21, (E)-2-Hydroxy-3-nitrobenzaldehyde O-methyl oxime]", "values": [
      {"measurement": "Ki", "setting": "DXP synthase [2]", "result": "47.8 ± 8.4", "unit": "µM"},
      {"measurement": "mode of inhibition with respect to D-GAP", "setting": "DXP synthase [2]", "result": "competitive"}
    ]},
    {"smiles": "CO/N=C/c1cc(O)c(O)cc1F", "note": "[Compound 22, (E)-2-Fluoro-4,5-dihydroxybenzaldehyde O-methyl oxime]", "values": [
      {"measurement": "stability under the conditions of the assay", "setting": "[3]", "result": "unstable"},
      {"measurement": "mode of inhibition with respect to D-GAP", "setting": "DXP synthase [2]", "result": "competitive"}
    ]},
    {"smiles": "CO/N=C/c1cc(F)c(F)cc1O", "note": "[Compound 23, (E)-4,5-Difluoro-2-hydroxybenzaldehyde O-methyl oxime]", "values": [
      {"measurement": "inhibitory activity", "setting": "DXP synthase [2]; up to 100 µM", "result": "minimally active"}
    ]},
    {"smiles": "CC1(C)C(=O)ON(Cc2ccccc2Cl)C1=O", "note": "[Ketoclomazone]", "values": [
      {"measurement": "Ki", "setting": "DXP synthase [1]", "result": 75, "unit": "µM"},
      {"measurement": "mode of inhibition against D-GAP", "setting": "DXP synthase [1]", "result": "noncompetitive"},
      {"measurement": "mode of inhibition with respect to pyruvate", "setting": "DXP synthase [1]", "result": "uncompetitive"}
    ]}
  ]
}
